Laboratory results published in patent publication US20250177425A1, “SAIKOSAPONIN C AS COMPOSITION FOR TREATING OR PREVENTING AGE-RELATED VASCULAR DISEASES INCLUDING ARTERIOSCLEROSIS” (AGINGTARGET, INC., priority 2022, published 2025).

How the values were obtained:
Assay type in all cases: cell-based, human
HPAEC [1] = test: MTT assay, high glucose-induced growth inhibition; conditions: 5 μM and 20 μM pretreatment 2 hours, 33 mM high glucose 72 hours, dose-dependent
Experimental: (§1) A high-fat diet test system at the cellular level was established using 33 mM high glucose (HG), which is 6 times the standard glucose concentration of 5.5 mM in the vascular endothelial cell culture medium.
(§2) Specifically, two types of endothelial cells, namely, human umbilical vein endothelial cells (HUVECs) and human pulmonary artery endothelial cells (HPAECs), were pretreated with 5 μM and 20 μM of Saikosaponin C (SSc) for 2 hours, and then treated with 33 mM of high glucose for 72 hours. Then, cell growth was analyzed using the MTT assay, which measures the mitochondrial metabolic capacity of living cells.
(§3) Endothelial cell growth was assessed by measuring the absorbance of MTT formazan at a wavelength of 590 nm.

HUVEC [2] = test: MTT assay, high glucose-induced growth inhibition; conditions: 5 μM and 20 μM pretreatment 2 hours, 33 mM high glucose 72 hours, dose-dependent
Experimental: as §1, §2, §3

HPAEC [3] = test: Cell cycle analysis by flow cytometry (PI), high glucose-induced G1 phase arrest; conditions: 5 μM and 20 μM pretreatment 2 hours, 33 mM high glucose 48 hours, dose-dependent
Experimental: (§4) Similar to Experimental Example 1, a high-fat diet evaluation system at the cellular level was established.
(§5) Specifically, two types of vascular endothelial cells, namely, HUVEC and HPAEC cells, were pretreated with Saikosaponin C at concentrations of 5 μM and 20 μM for 2 hours, then treated with high glucose (33 mM) for 48 hours, and then immobilized with cold 70% ethanol. The DNA of the immobilized vascular endothelial cells was stained with PI (propidium iodide, 50 μg/ml) solution and the cell cycle was analyzed using a flow cytometer. In addition, the expression of cell cycle regulatory proteins such as p21, p27, and p16 was analyzed after treatment with high glucose (33 mM) for 36 hours.
(§6) Since cellular senescence is closely related to the arrest in the G1 phase of the cell cycle, the cell cycle was evaluated using flow cytometry (FIG. 4A and FIG. 4B). In addition, the expression of p21, p27, and p16 proteins, which are G1 phase growth arrest-inducing proteins, was measured through Western blotting (FIG. 4C, FIG. 4D).

HUVEC [4] = test: as above; conditions: 5 μM and 20 μM pretreatment 2 hours, 33 mM high glucose 48 hours, dose-dependent
Experimental: as §4, §5, §6

[5] = test system: eNOS / nitric oxide in HPAEC; test: NOS-NO signaling: nitric oxide level, eNOS activity, expression, phosphorylation; conditions: 5 μM and 20 μM pretreatment 2 hours, 33 mM high glucose 36 hours, dose-dependent
Experimental: as §4
(§7) Specifically, two types of vascular endothelial cells, namely, HUVEC and HPAEC cells, were pretreated with Saikosaponin C at concentrations of 5 μM and 20 μM for 2 hours, and then treated with high glucose at a concentration of 33 mM for 36 hours. Then, the nitric oxide (NO) concentration, endothelial nitric oxide synthase (eNOS) activity, protein expression, and phosphorylation level were analyzed.
(§8) Nitric oxide production was measured using a Nitric Oxide Assay Kit (FIG. 6A and FIG. 6B). Specifically, nitrate (NO3^−) and nitrite (NO2^−) levels were measured using nitrate reductase and Griess reagent. Nitric oxide synthase activity was measured using a NOS Activity Assay Kit (FIG. 6C and FIG. 6D) and the expression and phosphorylation (Ser114) of NOS were measured by Western blotting (FIG. 6E and FIG. 6F).

[6] = test system: eNOS / nitric oxide in HUVEC; test: as above; conditions: 5 μM and 20 μM pretreatment 2 hours, 33 mM high glucose 36 hours, dose-dependent
Experimental: as §4, §7, §8

HCAEC = test: Monocyte-endothelial cell adhesion caused by TNF-α (Calcein AM-labeled THP-1); conditions: 5 μM and 20 μM pretreatment 2 hours, TNF-α 20 ng/ml 8 hours, THP-1 monocytes
Experimental: Specifically, two types of vascular endothelial cells, namely, HUVEC (human umbilical vein endothelial cells) and HCAEC (human coronary artery endothelial cells), were pretreated with Saikosaponin C at concentrations of 5 μM and 20 μM for 2 hours, and then treated with TNF-α (20 ng/ml) for 8 hours. Then, adhesion of monocyte-vascular endothelial cell and expression of cell adhesion molecules (ICAM-1, VCAM-1) of vascular endothelial cells were observed. […] The adhesion of monocyte-endothelial cells was evaluated by imaging analysis using a confocal microscope and fluorescence analysis using a microplate reader, and expression of adhesion proteins (ICAM-1 and VCAM-1) was evaluated by Western blotting.
Calcein AM fluorescence was analyzed using a confocal microscope and a microplate reader, and the expression of cell adhesion proteins (ICAM-1, VCAM-1) were evaluated through Western blotting.
FIGS. 9A and 9B show the results of analysis of monocyte-endothelial cell adhesion in two types of vascular endothelial cells (HUVEC, HCAEC) using a confocal microscope, and FIGS. 9C and 9D show the results of analysis of Calcein AM fluorescence (at an excitation wavelength of 488 nm, and at an emission wavelength of 517 nm) in the same experiment using a microplate reader. […]

AoSMC = test: Wound healing and transwell migration assay, PDGF-BB-induced; conditions: 5 μM and 20 μM pretreatment 2 hours, PDGF-BB 20 ng/ml 24 hours
Experimental: (§9) Specifically, two types of vascular smooth muscle cells, namely, AoSMC (human aortic smooth muscle cells) and CASMC (human coronary artery smooth muscle cells), were pretreated with Saikosaponin C at concentrations of 5 μM and 20 μM for 2 hours, and then treated with PDGF-BB (20 ng/ml), a platelet-derived growth factor (PDGF), for 24 hours. Then, the proliferation and migration of vascular smooth muscle cells were observed. A wound healing assay was performed to observe the proliferation and migration of vascular smooth muscle cells, and a transwell migration assay was performed to observe the migration ability of vascular smooth muscle cells.
(§10) FIGS. 10A and 10B show the results of evaluating the proliferation and migration of vascular smooth muscle cells (AoSMC, CASMC) through a scratch wound healing assay. FIGS. 10C and 10D show the results of analyzing the cell migration ability of the same cells using a Transwell migration chamber with a pore size of 8.0 μm.

CASMC = test: as above; conditions: 5 μM and 20 μM pretreatment 2 hours, PDGF-BB 20 ng/ml 24 hours
Experimental: as §9, §10

`CC1O[C@@H](O[C@@H]2C(CO[C@@H]3OC(CO)[C@@H](O)C(O)C3O)O[C@@H](O[C@H]3CC[C@]4(C)[C@H]5C=C[C@]67OC[C@@]8(CCC(C)(C)C[C@H]86)[C@@H](O)C[C@@]7(C)[C@]5(C)CC[C@H]4C3(C)C)C(O)C2O)C(O)C(O)[C@H]1O` (stereo partly drawn) [Saikosaponin C] was tested. Which “high glucose-induced cell growth inhibition (MTT)” value (HPAEC [1]) did it give?
The value was “significantly alleviated”.

And the “high glucose-induced cell growth inhibition (MTT)” value (HUVEC [2])?
The value was “significantly alleviated”.

What about the “high glucose-induced G1 phase arrest” value (HPAEC [3]) of the same molecule?
Its value is “significantly abolished”.

What about the “high glucose-induced G1 phase arrest” value (HUVEC [4]) of the same molecule?
Its value is “significantly abolished”.

What about the “high glucose-induced decrease in NOS-NO signaling (NO level, eNOS enzymatic activity, protein expression, phosphorylation)” value [5] of the same molecule?
The value was “significantly alleviated”.

And the “high glucose-induced decrease in NOS-NO signaling (NO level, eNOS enzymatic activity, protein expression, phosphorylation)” value [6]?
The value was “significantly alleviated”.

And the “monocyte-endothelial cell adhesion caused by TNF-α” value (HCAEC)?
Its value is “inhibited”.

And the “PDGF-BB-increased proliferation and migration of vascular smooth muscle cells” value (AoSMC)?
Its value is “not inhibited”.

And the “PDGF-BB-increased proliferation and migration of vascular smooth muscle cells” value (CASMC)?
Its value is “not inhibited”.
